Data reported in the supplement of paper PMC11208160.

Assay: recombinant barcode read abundance after kanamycin selection (control-corrected) (log10(CPM+1)); higher = more efficient recombination; sequences stand for … in AGTGCAGAGAAAATCGGCCAGTTTTCTCTGCCTGCAGTCCGCATGCCGT…AGATTTATGCAGCGGACTGCCTTTCTCCCAAAGTGATAAACCGGACAGTATCATGGACCGGTTTTCCCGGTAATCCGTATTTGCAAGGTTGGTTTCACT; site = the 11-nt target
How it was run: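 In a pooled screen in E. coli, targets were paired with target-binding loops of the IS621 bridge RNA. Each oligo carried a promoter, a target, a barcode and the first 104 bridge RNA bases driven by J23119, and was Gibson-cloned into a vector holding the remaining 73 bp and a T7-inducible recombinase before co-electroporation with a donor plasmid. Duplicate platings went onto chloramphenicol/ampicillin LB agar as the control or onto chloramphenicol/ampicillin/kanamycin with 0.1 mM IPTG. Recombination efficiency is the averaged, control-corrected count per million of barcodes at recombinant junctions, given as log10(CPM+1).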
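Also: IS621 recombinase and bridge RNA in Escherichia coli cells.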

Sequence	recombinant barcode read abundance (log10)
TCTCGGTCTTGGGTTCTAACCTGTTGCCT (site TCACGGTCTAG)	0.71
TCTCGGTCTTGGGTTCTAACCTGTTGCCT (site TCTCGGTCTAG)	0.277
TCTCGTTCTTGGGTTCTAACCTGTTGCTA (site AGAGTAACTGT)	0.127
TCTCGTTCTTGGGTTCTAACCTGTTGCTA (site TCTCGTTCTTA)	0.102
TCTGATTCTTGGGTTCTAACCTGTTGCCG (site TCTGATTCTCG)	0.197
TCTGATTCTTGGGTTCTAACCTGTTGCCG (site TCTTATTCTAG)	0.133
TCTGATTCTTGGGTTCTAACCTGTTGCGT (site TCTAATTCTAC)	0.352
TCTGATTCTTGGGTTCTAACCTGTTGCGT (site TCTCATTCTAC)	0.00698
TCTGATTCTTGGGTTCTAACCTGTTGCGT (site TCTGATTCTAC)	1.4
TCTGATTCTTGGGTTCTAACCTGTTGCGT (site TCTTATTCTAC)	0.212
TCTGGCACTTGGGTTCTAACCTGTTGCCT (site TCCAGCACTAG)	0.205
TCTGGCACTTGGGTTCTAACCTGTTGCCT (site TCTGGCACTAG)	0.0487
TCTGGCCCTTGGGTTCTAACCTGTTGCCT (site CACCCTTCTGA)	0.124
TCTGGCCCTTGGGTTCTAACCTGTTGCCT (site TCTGGCCCTAG)	0.478
TCTGTATCTTGGGTTCTAACCTGTTGCCT (site ACTGTATCTAG)	0.28
TCTGTATCTTGGGTTCTAACCTGTTGCCT (site CCTGTATCTAG)	0.0921
TCTGTATCTTGGGTTCTAACCTGTTGCCT (site GCTGTATCTAG)	0.152
TCTGTATCTTGGGTTCTAACCTGTTGCCT (site TCTGTATCTAG)	0.614
TCTTAGACTTGGGTTCTAACCTGTTGCCG (site TCTTAGACTAG)	0.231
TCTTAGACTTGGGTTCTAACCTGTTGCCG (site TCTTAGACTCG)	0.232
TCTTAGACTTGGGTTCTAACCTGTTGCCT (site TCTTAGACTAG)	0.0224
TCTTAGACTTGGGTTCTAACCTGTTGCCT (site TCTTAGACTCG)	0.0132

Sequence	recombinant barcode read abundance (log10)
TCTTAGACTTGGGTTCTAACCTGTTGCTT (site TCTTAGACTAA)	0.17
TCTTAGACTTGGGTTCTAACCTGTTGCTT (site TGTTGGACTAA)	0.0581
TCTTCCACTTGGGTTCTAACCTGTTGCCT (site ACTTCCACTAG)	0.0827
TCTTCCACTTGGGTTCTAACCTGTTGCCT (site CCTTCCACTAG)	0.0781
TCTTCCACTTGGGTTCTAACCTGTTGCCT (site GCTTCCACTAG)	0.0327
TCTTCCACTTGGGTTCTAACCTGTTGCCT (site TCTTCCACTAG)	0.385
TCTTCGACTTGGGTTCTAACCTGTTGCAG (site GGAAAAGCTAA)	0.0479
TCTTCGACTTGGGTTCTAACCTGTTGCAG (site TCTTCGACTCT)	0.111
TCTTTACCTTGGGTTCTAACCTGTTGCCT (site ACTTTACCTAG)	0.146
TCTTTACCTTGGGTTCTAACCTGTTGCCT (site CCTTTACCTAG)	0.182
TCTTTACCTTGGGTTCTAACCTGTTGCCT (site GCTTTACCTAG)	0.043
TCTTTACCTTGGGTTCTAACCTGTTGCCT (site TCTTTACCTAG)	0.0757
TGAAATCCTTGGGTTCTAACCTGTTGCCT (site GGATATCCTAG)	0.848
TGAAATCCTTGGGTTCTAACCTGTTGCCT (site TGAAATCCTAG)	0.304
TGAATTACTTGGGTTCTAACCTGTTGCCT (site TGAAATACTAG)	0.116
TGAATTACTTGGGTTCTAACCTGTTGCCT (site TGAACTACTAG)	0.108
TGAATTACTTGGGTTCTAACCTGTTGCCT (site TGAAGTACTAG)	0.033
TGAATTACTTGGGTTCTAACCTGTTGCCT (site TGAATTACTAG)	0.102
TGACGTCCTTGGGTTCTAACCTGTTGCCT (site TGACGTCCTAA)	0.455
TGACGTCCTTGGGTTCTAACCTGTTGCCT (site TGACGTCCTAC)	0.315
TGACGTCCTTGGGTTCTAACCTGTTGCCT (site TGACGTCCTAG)	0.253
TGACGTCCTTGGGTTCTAACCTGTTGCCT (site TGACGTCCTAT)	0.057

Sequence	recombinant barcode read abundance (log10)
TGACGTCCTTGGGTTCTAACCTGTTGCGT (site TGACGTCCTAA)	0.0894
TGACGTCCTTGGGTTCTAACCTGTTGCGT (site TGACGTCCTAC)	1.72
TGACGTCCTTGGGTTCTAACCTGTTGCGT (site TGACGTCCTAG)	0.0763
TGACGTCCTTGGGTTCTAACCTGTTGCGT (site TGACGTCCTAT)	0.286
TGACGTTCTTGGGTTCTAACCTGTTGCCT (site TGACCTTCTAG)	0.189
TGACGTTCTTGGGTTCTAACCTGTTGCCT (site TGACGTTCTAG)	0.313
TGAGAGACTTGGGTTCTAACCTGTTGCGT (site ATGAGTCCTTT)	0.0989
TGAGAGACTTGGGTTCTAACCTGTTGCGT (site TGAGAGACTAC)	2.94
TGAGGTGCTTGGGTTCTAACCTGTTGCCT (site GGAGGGGCTAG)	0.193
TGAGGTGCTTGGGTTCTAACCTGTTGCCT (site TGAGGTGCTAG)	0.818
TGATCCACTTGGGTTCTAACCTGTTGCCT (site AGATCCACTAG)	0.0667
TGATCCACTTGGGTTCTAACCTGTTGCCT (site CGATCCACTAG)	0.0881
TGATCCACTTGGGTTCTAACCTGTTGCCT (site GGATCCACTAG)	0.0751
TGATCCACTTGGGTTCTAACCTGTTGCCT (site TGATCCACTAG)	0.596
TGATCTACTTGGGTTCTAACCTGTTGCTT (site TGATCTACTAA)	0.0729
TGATCTACTTGGGTTCTAACCTGTTGCTT (site TGCTCTACTAA)	0.0846
TGATCTACTTGGGTTCTAACCTGTTGCTT (site TGGTCTACTAA)	0.0447
TGATCTACTTGGGTTCTAACCTGTTGCTT (site TGTTCTACTAA)	0.0588
TGCAAGTCTTGGGTTCTAACCTGTTGCCT (site TGCAAGTCTAG)	0.361
TGCAAGTCTTGGGTTCTAACCTGTTGCCT (site TGCGAGTCTAG)	0.137
TGCACCTCTTGGGTTCTAACCTGTTGCTA (site CAATAGACTAG)	0.0267
TGCACCTCTTGGGTTCTAACCTGTTGCTA (site TGCACCTCTTA)	0.541
